Patent publication US7790884B2, “Acylaminopiperidine compound” (Astellas Pharma Inc., priority 2006, dated 2010)
Where a name gives a salt, the structure may show the parent alone.

Target: T1, human CCR4 (Homo sapiens, UniProt P51679)
T1 construct: expressed in transfected cells; membrane fraction used
T1 sequence (P51679 1-360): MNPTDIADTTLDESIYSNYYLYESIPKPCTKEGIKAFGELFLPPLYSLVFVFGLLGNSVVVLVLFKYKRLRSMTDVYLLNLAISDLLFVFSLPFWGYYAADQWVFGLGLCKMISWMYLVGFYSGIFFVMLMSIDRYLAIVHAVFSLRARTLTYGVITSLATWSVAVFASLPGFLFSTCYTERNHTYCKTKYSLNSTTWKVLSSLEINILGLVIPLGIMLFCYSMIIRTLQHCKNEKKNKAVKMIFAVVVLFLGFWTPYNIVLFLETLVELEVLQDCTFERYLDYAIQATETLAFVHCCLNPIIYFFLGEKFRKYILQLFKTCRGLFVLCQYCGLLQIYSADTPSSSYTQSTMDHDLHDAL
Assay: [35S]GTPγS binding test via CCR4 (human MDC-stimulated, human CCR4 expressing cell line membrane fraction)
Format: biochemical
Conditions: membrane fraction of human CCR4 expressing B300-16 cells, room temperature 1 hour 30 minutes, read-out: inhibitory activity value (IC50)
Description: Action for [^35S]GTPγS Binding Test Via CCR4 (1) Preparation of Human CCR4 Expressing Cell Line A vector (contains a neomycin-resistance gene) in which human CCR4 gene was inserted into downstream of the EF-1α promoter was prepared and transfected into a mouse pre B cell line B300-16 cells by electroporation. These cells were cultured using a G-418-supplemented medium, and a single cell line capable of producing human CCR4 constantly and stably was obtained by the limiting dilution method. (2) Preparation of Human CCR4 Expressing Cell Line Membrane Fraction The human CCR4 expressing cells were recovered, washed with PBS and then suspended in a lysis buffer (10 mM HEPES pH 7.5, 2 mM EDTA, proteinase inhibitor). After allowing the suspension to stand on ice for 15 minutes, the cells were disintegrated using a homogenizer and centrifuged (2000 rpm, 10 min, 4° C.). The supernatant was further subjected to ultracentrifugation (22 K, 30 min, 4° C.), and then the pellet was suspended in PBS and used in the subsequent test. (3) GTPγS Binding Test In a reaction mixture liquid containing 20 mM of HEPES pH 7.05, 100 mM of NaCl, 5 mM of MgCl2, 2 μM of GDP, human MDC, […] of [^35S]GTPγS, 1 mg of wheat germ agglutinin SPA beads and 1 μg of the human CCR4 expressing cell line membrane fraction, respective concentration of the test compound was allowed to undergo the reaction at room temperature for 1 hour and 30 minutes, and the radioactivity was measured.

Row | SMILES | IC50
1 | COc1cc2nc(N3CCC(N(C)C(=O)[C@@H]4CCCN4C)CC3)nc(Nc3ccc(Cl)cc3F)c2cc1OC [Example 1, N-(1-{4-[(4-chloro-2-fluorophenyl)amino]-6,7-dimethoxyquinazolin-2-yl}piperidin-4-yl)-N,1-dimethyl-L-prolinamide dihydrochloride] | ≤ 100 nM
2 | CN(C(=O)[C@H]1CCCN1C)C1CCN(c2nc(Nc3ccc(Cl)cc3F)c3cc(Br)ccc3n2)CC1 [Example 22] | ≤ 100 nM
3 | CCN(C(=O)[C@H]1CCCN1)C1CCN(c2nc(Nc3ccc(Cl)cc3F)c3cc(OC)c(OC)cc3n2)CC1 [Example 12] | ≤ 100 nM
4 | COc1cc2nc(N3CCC(N(C)C(=O)[C@@H]4CCCN4)CC3)nc(Nc3ccc(Cl)cc3F)c2cc1OC [Example 2, N-(1-{4-[(4-chloro-2-fluorophenyl)amino]-6,7-dimethoxyquinazolin-2-yl}piperidin-4-yl)-N-methyl-L-prolinamide dihydrochloride] | ≤ 100 nM
5 | COc1cc2nc(N3CCC(N(C)C(=O)[C@H]4CCCN4)CC3)nc(Nc3ccc(Cl)cc3F)c2cc1OC [Example 10] | ≤ 100 nM
6 | CCN(C(=O)[C@H]1CCCN1)C1CCN(c2nc(Nc3ccc(Cl)cc3F)c3ccc(C#N)cc3n2)CC1 [Example 28] | ≤ 100 nM
7 | CN(C(=O)[C@@H]1CCCN1C)C1CCN(c2nc(Nc3ccc(Cl)cc3F)c3ccc(C#N)cc3n2)CC1 [Example 15] | ≤ 100 nM
8 | CN(C(=O)[C@H]1CCCN1)C1CCN(c2nc(Nc3ccc(Cl)cc3F)c3cc(F)ccc3n2)CC1 [Example 30] | ≤ 100 nM
9 | CCN(C(=O)[C@H]1CCCN1C)C1CCN(c2nc(Nc3ccc(Cl)cc3F)c3cc(OC)c(OC)cc3n2)CC1 [Example 26] | ≤ 100 nM
10 | COc1cc2c(Nc3ccc(Cl)cc3F)nc(N3CCC(N(C)C(=O)[C@H]4CCCN4C)CC3)nc2cc1F [Example 37] | ≤ 100 nM
11 | COc1cc2c(Nc3ccc(Cl)cc3F)nc(N3CCC(N(C)C(=O)[C@H]4CCCN4)CC3)nc2cc1F [Example 35] | ≤ 100 nM
12 | COc1cc2c(Nc3ccc(Cl)cc3F)nc(N3CCC(N(C)C(=O)[C@@H]4CCCN4C)CC3)nc2cc1F [Example 36] | ≤ 100 nM

Next, values leading:

Row | IC50 | SMILES
13 | ≤ 100 nM | CN(C(=O)[C@@H]1CCCN1C)C1CCN(c2nc(Nc3ccc(Cl)cc3)c3cc(Br)ccc3n2)CC1 [Example 46]
14 | ≤ 100 nM | COc1cc2nc(N3CCC(N(C(=O)[C@H]4CCCCN4)C4CC4)CC3)nc(Nc3ccc(Cl)cc3F)c2cc1OC [Example 90]
15 | ≤ 100 nM | CCn1ncc2c(NCc3ccc(Cl)cc3F)nc(N3CCC(N(C)C(=O)[C@H]4CCCN4)CC3)nc21 [Example 105]
16 | ≤ 100 nM | CCN(C(=O)[C@H]1CCCN1)C1CCN(c2nc(Nc3ccc(Cl)cc3)c3cc(Br)ccc3n2)CC1 [Example 45]
17 | ≤ 100 nM | CCN(C(=O)[C@@H]1CCCN1C)C1CCN(c2nc(Nc3ccc(Cl)cc3)c3cc(Br)ccc3n2)CC1 [Example 59]
18 | ≤ 100 nM | COc1cc2nc(N3CCC(N(C)C(=O)[C@H]4CCCN4)CC3)nc(Nc3ncc(Cl)cc3Cl)c2cc1F [Example 75]
19 | ≤ 100 nM | CCn1ncc2c(Nc3ccc(Cl)cc3F)nc(N3CCC(N(C)C(=O)[C@H]4CCCN4C)CC3)nc21 [Example 100]
20 | ≤ 100 nM | CN(C(=O)[C@H]1CCCN1)C1CCN(c2nc(NCc3ccc(Cl)cc3F)c3cnn(CC(F)(F)F)c3n2)CC1 [Example 106]
21 | ≤ 100 nM | CN(C(=O)[C@@H]1CCCN1C)C1CCN(c2nc(Nc3ccc(Cl)cc3)c3cc(F)ccc3n2)CC1 [Example 41]
22 | ≤ 100 nM | COc1cc2nc(N3CCC(N(C)C(=O)[C@H]4CCCN4)CC3)nc(Nc3ccc(Cl)cc3)c2cc1F [Example 73]
23 | ≤ 100 nM | CCn1ncc2c(Nc3ccc(Cl)cc3F)nc(N3CCC(N(C)C(=O)[C@H]4CCCN4)CC3)nc21 [Example 99]
24 | ≤ 100 nM | CCN(C(=O)[C@@H]1CCCN1)C1CCN(c2nc(Nc3ccc(Cl)cc3F)c3ccc(C#N)cc3n2)CC1 [Example 69]
25 | ≤ 100 nM | CCN(C(=O)[C@@H]1CCCN1C)C1CCN(c2nc(Nc3ccc(Cl)cc3F)c3cc(Br)ccc3n2)CC1 [Example 57]
26 | ≤ 100 nM | CCN(C(=O)[C@@H]1CCCN1)C1CCN(c2nc(Nc3ccc(Cl)cc3F)c3cc(F)ccc3n2)CC1 [Example 48]
27 | ≤ 100 nM | CCN(C(=O)[C@@H]1CCCN1)C1CCN(c2nc(Nc3ccc(Cl)cc3)c3cc(F)ccc3n2)CC1 [Example 53]
28 | ≤ 100 nM | CCN(C(=O)[C@@H]1CCCN1C)C1CCN(c2nc(Nc3ccc(Cl)cc3)c3cc(F)ccc3n2)CC1 [Example 51]
29 | ≤ 100 nM | COc1cc2nc(N3CCC(N(C)C(=O)[C@H]4CCCCN4)CC3)nc(Nc3ccc(Cl)cc3F)c2cc1OC [Example 87]

Tested on: Balb/c mice, oxazolone-induced contact dermatitis
Assay: Mouse oxazolone-induced contact dermatitis (ear swelling)
Format: in vivo
Conditions: 30 mg/kg oral administration, swelling 20 hours after oxazolone application
Description: 2. Action Upon Mouse Oxazolone-Induced Contact Dermatitis
Balb/c mice (6 to 10 weeks of age, female, Charles River Japan) were sensitized by applying 150 μl of 3% oxazolone/ethanol solution (Sigma Aldrich Japan) to the abdominal part. On the 6th day after the sensitization, 10 μl of 1% oxazolone/ethanol solution was applied to both sides of the right ear. The test drug was administered in 12 hours after the application of the oxazolone solution (test drug administration group), and the solvent alone used in dissolving the test drug was administered to the control group. Thickness of the right auricle was measured before the application and 20 hours thereafter using a […] (Mitsutoyo), and the swelling (thickness increment=measured value after 20 hours−measured value before application) was calculated. The inhibition ratio was calculated by the following formula, by regarding a group to which the oxazolone solution was applied without sensitization as the normal group. In this connection, the above-mentioned test was carried out by 5 animals per group. Inhibition ratio=(swelling of control group−swelling of test drug administration group)×100/(swelling of control group−swelling of normal group)

Row | SMILES | inhibitory activity (inhibition of right auricle swelling)
30 | COc1cc2nc(N3CCC(N(C)C(=O)[C@@H]4CCCN4C)CC3)nc(Nc3ccc(Cl)cc3F)c2cc1OC [Example 1, N-(1-{4-[(4-chloro-2-fluorophenyl)amino]-6,7-dimethoxyquinazolin-2-yl}piperidin-4-yl)-N,1-dimethyl-L-prolinamide dihydrochloride] | good inhibitory activity
